Assays:
Experiment in all cases: KINOMEscan
Type in all cases: binding
Details in all cases: read-out: Remaining enzyme activity
[1] = target: T1, RPS6KA3(Kin.Dom.1-N-term) (Homo sapiens, UniProt P51812)
T1 construct: RPS6KA3(Kin.Dom.1-N-term); purchased Ambit (DiscoverX) KINOMEscan; Cerep
How it was run: (§1)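 Competition binding: DNA-tagged kinase, immobilized active-site ligand and test compound were combined, and kinase left on beads was quantified by qPCR of the DNA tag. Kinases were T7 phage fusions grown in a BL21-derived E. coli host or were expressed in HEK-293 cells. SC81458 was tested at 10 μM final.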

ERK8 = target: T2, ERK8 (Homo sapiens, UniProt Q8TD08)
T2 construct: purchased Ambit (DiscoverX) KINOMEscan; Cerep
How it was run: as §1

BLK = target: T3, BLK (Homo sapiens, UniProt P51451)
T3 construct: purchased Ambit (DiscoverX) KINOMEscan; Cerep
How it was run: as §1

HIPK3 = target: T4, HIPK3 (Homo sapiens, UniProt Q9H422)
T4 construct: purchased Ambit (DiscoverX) KINOMEscan; Cerep
How it was run: as §1

MST4 = target: T5, MST4 (Homo sapiens, UniProt Q9P289)
T5 construct: purchased Ambit (DiscoverX) KINOMEscan; Cerep
How it was run: as §1

FER = target: T6, FER (Homo sapiens, UniProt P16591)
T6 construct: purchased Ambit (DiscoverX) KINOMEscan; Cerep
How it was run: as §1

NEK9 = target: T7, NEK9 (Homo sapiens, UniProt Q8TD19)
T7 construct: purchased Ambit (DiscoverX) KINOMEscan; Cerep
How it was run: as §1

MET = target: T8, MET (Homo sapiens, UniProt P08581)
T8 construct: purchased Ambit (DiscoverX) KINOMEscan; Cerep
How it was run: as §1

EPHA6 = target: T9, EPHA6 (Homo sapiens, UniProt Q9UF33)
T9 construct: purchased Ambit (DiscoverX) KINOMEscan; Cerep
How it was run: as §1

NEK5 = target: T10, NEK5 (Homo sapiens, UniProt Q6P3R8)
T10 construct: purchased Ambit (DiscoverX) KINOMEscan; Cerep
How it was run: as §1

WEE2 = target: T11, WEE2 (Homo sapiens, UniProt P0C1S8)
T11 construct: purchased Ambit (DiscoverX) KINOMEscan; Cerep
How it was run: as §1

EGFR(L858R, T790M) = target: T12, EGFR(L858R, T790M) (Homo sapiens, UniProt P00533, L858R/T790M)
T12 construct: purchased Ambit (DiscoverX) KINOMEscan; Cerep
How it was run: as §1

ACVR2b = target: T13, ACVR2b (Homo sapiens, UniProt Q13705)
T13 construct: purchased Ambit (DiscoverX) KINOMEscan; Cerep
How it was run: as §1

[2] = target: T14, EGFR(L747-E752del, P753S) (Homo sapiens, UniProt P00533, DEL747-752/P753S)
T14 construct: purchased Ambit (DiscoverX) KINOMEscan; Cerep
How it was run: as §1

PIK3CA(H1047Y) = target: T15, PIK3CA(H1047Y) (Homo sapiens, UniProt P42336, H1047Y)
T15 construct: purchased Ambit (DiscoverX) KINOMEscan; Cerep
How it was run: as §1

p38-delta = target: T16, p38-delta (Homo sapiens, UniProt O15264)
T16 construct: purchased Ambit (DiscoverX) KINOMEscan; Cerep
How it was run: as §1

DCAMKL3 = target: T17, DCAMKL3 (Homo sapiens, UniProt Q9C098)
T17 construct: purchased Ambit (DiscoverX) KINOMEscan; Cerep
How it was run: as §1

YSK4 = target: T18, YSK4 (Homo sapiens, UniProt Q56UN5)
T18 construct: purchased Ambit (DiscoverX) KINOMEscan; Cerep
How it was run: as §1

LIMK2 = target: T19, LIMK2 (Homo sapiens, UniProt P53671)
T19 construct: purchased Ambit (DiscoverX) KINOMEscan; Cerep
How it was run: as §1

ZAP70 = target: T20, ZAP70 (Homo sapiens, UniProt P43403)
T20 construct: purchased Ambit (DiscoverX) KINOMEscan; Cerep
How it was run: as §1

ERK5 = target: T21, ERK5 (Homo sapiens, UniProt Q13164)
T21 construct: purchased Ambit (DiscoverX) KINOMEscan; Cerep
How it was run: as §1

ERBB4 = target: T22, ERBB4 (Homo sapiens, UniProt Q15303)
T22 construct: purchased Ambit (DiscoverX) KINOMEscan; Cerep
How it was run: as §1

RAF1 = target: T23, RAF1 (Homo sapiens, UniProt P04049)
T23 construct: purchased Ambit (DiscoverX) KINOMEscan; Cerep
How it was run: as §1

EGFR = target: T24, EGFR (Homo sapiens, UniProt P00533)
T24 construct: purchased Ambit (DiscoverX) KINOMEscan; Cerep
How it was run: as §1

DYRK1a = target: T25, DYRK1a (Homo sapiens, UniProt Q13627)
T25 construct: purchased Ambit (DiscoverX) KINOMEscan; Cerep
How it was run: as §1

VEGFR2 = target: T26, VEGFR2 (Homo sapiens, UniProt P35968)
T26 construct: purchased Ambit (DiscoverX) KINOMEscan; Cerep
How it was run: as §1

PRKCE = target: T27, PRKCE (Homo sapiens, UniProt Q02156)
T27 construct: purchased Ambit (DiscoverX) KINOMEscan; Cerep
How it was run: as §1

MARK2 = target: T28, MARK2 (Homo sapiens, UniProt Q7KZI7)
T28 construct: purchased Ambit (DiscoverX) KINOMEscan; Cerep
How it was run: as §1

FLT3(N841I) = target: T29, FLT3(N841I) (Homo sapiens, UniProt P36888, N841I)
T29 construct: purchased Ambit (DiscoverX) KINOMEscan; Cerep
How it was run: as §1

NEK6 = target: T30, NEK6 (Homo sapiens, UniProt Q9HC98)
T30 construct: purchased Ambit (DiscoverX) KINOMEscan; Cerep
How it was run: as §1

TYRO3 = target: T31, TYRO3 (Homo sapiens, UniProt Q06418)
T31 construct: purchased Ambit (DiscoverX) KINOMEscan; Cerep
How it was run: as §1

DLK = target: T32, DLK (Homo sapiens, UniProt Q12852)
T32 construct: purchased Ambit (DiscoverX) KINOMEscan; Cerep
How it was run: as §1

CSK = target: T33, CSK (Homo sapiens, UniProt P41240)
T33 construct: purchased Ambit (DiscoverX) KINOMEscan; Cerep
How it was run: as §1

T30 sequence (Q9HC98 whole entry): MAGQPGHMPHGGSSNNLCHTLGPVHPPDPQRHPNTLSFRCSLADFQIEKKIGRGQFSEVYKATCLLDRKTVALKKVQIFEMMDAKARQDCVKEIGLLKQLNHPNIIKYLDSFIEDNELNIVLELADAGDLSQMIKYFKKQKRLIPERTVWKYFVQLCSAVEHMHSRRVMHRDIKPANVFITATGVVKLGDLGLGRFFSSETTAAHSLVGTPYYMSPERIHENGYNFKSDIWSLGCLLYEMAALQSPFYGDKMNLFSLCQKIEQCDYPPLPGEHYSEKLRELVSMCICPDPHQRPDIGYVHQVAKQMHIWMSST
T20 sequence (P43403 whole entry): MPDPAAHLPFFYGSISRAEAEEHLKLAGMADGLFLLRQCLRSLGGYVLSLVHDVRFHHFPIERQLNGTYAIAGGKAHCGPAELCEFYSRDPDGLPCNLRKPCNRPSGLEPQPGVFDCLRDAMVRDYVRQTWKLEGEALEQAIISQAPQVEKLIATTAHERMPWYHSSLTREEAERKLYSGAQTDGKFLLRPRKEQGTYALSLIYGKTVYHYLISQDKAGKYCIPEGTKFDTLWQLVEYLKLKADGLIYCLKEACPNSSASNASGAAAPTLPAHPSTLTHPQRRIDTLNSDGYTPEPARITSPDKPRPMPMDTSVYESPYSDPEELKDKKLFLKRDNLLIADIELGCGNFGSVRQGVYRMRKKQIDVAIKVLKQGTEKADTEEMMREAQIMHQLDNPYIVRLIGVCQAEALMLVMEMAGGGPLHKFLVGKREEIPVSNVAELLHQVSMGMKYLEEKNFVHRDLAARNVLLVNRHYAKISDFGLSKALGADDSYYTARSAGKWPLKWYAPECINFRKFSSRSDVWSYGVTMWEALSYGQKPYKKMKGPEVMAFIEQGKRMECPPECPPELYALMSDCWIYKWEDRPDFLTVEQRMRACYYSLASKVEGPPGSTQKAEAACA
T33 sequence (P41240 whole entry): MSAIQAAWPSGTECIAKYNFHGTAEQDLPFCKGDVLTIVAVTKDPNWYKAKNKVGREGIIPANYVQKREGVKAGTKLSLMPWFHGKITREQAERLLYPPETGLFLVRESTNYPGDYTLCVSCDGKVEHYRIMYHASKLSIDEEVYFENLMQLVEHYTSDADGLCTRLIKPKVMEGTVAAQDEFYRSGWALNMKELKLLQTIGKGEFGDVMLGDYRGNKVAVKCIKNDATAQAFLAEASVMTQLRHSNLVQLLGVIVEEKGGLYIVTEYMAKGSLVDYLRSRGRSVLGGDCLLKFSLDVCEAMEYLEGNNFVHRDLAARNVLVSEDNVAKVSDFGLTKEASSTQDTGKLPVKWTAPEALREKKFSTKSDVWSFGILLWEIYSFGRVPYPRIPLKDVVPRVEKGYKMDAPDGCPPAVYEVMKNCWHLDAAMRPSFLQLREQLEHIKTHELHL
T7 sequence (Q8TD19 whole entry): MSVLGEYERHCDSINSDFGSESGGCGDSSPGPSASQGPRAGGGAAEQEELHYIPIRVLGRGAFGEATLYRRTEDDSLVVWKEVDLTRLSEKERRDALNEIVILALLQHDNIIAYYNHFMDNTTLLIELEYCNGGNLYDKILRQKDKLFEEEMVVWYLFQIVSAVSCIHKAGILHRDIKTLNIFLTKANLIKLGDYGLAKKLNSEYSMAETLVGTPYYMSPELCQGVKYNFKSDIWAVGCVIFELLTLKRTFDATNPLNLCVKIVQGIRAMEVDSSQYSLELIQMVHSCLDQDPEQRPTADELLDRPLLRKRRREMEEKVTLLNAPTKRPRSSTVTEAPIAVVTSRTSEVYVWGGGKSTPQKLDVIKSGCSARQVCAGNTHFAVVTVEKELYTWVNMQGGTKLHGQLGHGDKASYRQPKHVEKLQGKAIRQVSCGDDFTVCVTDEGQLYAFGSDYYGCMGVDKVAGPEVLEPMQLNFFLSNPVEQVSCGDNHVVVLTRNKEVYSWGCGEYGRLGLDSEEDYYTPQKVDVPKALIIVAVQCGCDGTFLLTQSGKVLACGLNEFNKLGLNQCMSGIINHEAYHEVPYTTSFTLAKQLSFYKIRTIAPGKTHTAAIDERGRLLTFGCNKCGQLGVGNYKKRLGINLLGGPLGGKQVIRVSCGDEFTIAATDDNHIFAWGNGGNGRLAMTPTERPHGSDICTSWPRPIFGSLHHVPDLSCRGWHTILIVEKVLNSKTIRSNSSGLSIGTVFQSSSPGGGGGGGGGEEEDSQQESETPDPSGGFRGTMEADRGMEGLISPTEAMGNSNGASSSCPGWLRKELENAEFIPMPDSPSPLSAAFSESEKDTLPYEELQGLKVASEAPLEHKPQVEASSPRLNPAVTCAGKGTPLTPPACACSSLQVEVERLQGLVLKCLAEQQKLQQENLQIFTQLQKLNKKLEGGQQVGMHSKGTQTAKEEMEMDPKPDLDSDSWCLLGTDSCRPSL
T26 sequence (P35968 20-1356): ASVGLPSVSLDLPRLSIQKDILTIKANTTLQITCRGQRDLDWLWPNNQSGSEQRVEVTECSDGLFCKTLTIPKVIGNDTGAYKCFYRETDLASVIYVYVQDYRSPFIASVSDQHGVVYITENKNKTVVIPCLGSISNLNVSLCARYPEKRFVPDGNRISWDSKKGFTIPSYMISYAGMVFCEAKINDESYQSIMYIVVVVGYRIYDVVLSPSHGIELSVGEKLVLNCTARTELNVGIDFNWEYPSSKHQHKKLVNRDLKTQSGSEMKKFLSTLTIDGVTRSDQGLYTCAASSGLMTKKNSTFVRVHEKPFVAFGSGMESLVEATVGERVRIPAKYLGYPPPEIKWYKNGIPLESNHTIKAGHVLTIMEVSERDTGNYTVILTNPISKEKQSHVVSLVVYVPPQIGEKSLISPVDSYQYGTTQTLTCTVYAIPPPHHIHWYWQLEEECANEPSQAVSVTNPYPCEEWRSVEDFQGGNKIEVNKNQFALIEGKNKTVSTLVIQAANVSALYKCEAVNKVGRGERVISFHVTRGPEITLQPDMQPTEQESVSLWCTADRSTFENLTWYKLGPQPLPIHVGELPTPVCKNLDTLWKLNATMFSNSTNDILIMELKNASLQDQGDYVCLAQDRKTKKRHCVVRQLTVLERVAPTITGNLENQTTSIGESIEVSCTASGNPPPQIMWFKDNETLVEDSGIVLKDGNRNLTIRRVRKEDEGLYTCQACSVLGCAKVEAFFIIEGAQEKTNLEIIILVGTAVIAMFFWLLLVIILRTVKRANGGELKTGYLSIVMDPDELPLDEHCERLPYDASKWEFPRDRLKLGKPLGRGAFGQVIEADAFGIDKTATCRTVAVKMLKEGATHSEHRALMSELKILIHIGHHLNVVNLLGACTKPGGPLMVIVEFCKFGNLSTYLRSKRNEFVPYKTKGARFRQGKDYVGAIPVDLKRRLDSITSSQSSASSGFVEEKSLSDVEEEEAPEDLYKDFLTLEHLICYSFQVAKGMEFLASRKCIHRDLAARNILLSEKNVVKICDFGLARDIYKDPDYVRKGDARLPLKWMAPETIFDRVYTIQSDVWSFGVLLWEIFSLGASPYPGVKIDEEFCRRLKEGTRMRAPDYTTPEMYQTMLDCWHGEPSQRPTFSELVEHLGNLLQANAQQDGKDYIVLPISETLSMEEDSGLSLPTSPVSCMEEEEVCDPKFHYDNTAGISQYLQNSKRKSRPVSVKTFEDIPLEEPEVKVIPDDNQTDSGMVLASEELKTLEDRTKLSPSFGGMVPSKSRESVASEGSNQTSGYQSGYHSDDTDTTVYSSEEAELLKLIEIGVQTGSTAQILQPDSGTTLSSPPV
T3 sequence (P51451 whole entry): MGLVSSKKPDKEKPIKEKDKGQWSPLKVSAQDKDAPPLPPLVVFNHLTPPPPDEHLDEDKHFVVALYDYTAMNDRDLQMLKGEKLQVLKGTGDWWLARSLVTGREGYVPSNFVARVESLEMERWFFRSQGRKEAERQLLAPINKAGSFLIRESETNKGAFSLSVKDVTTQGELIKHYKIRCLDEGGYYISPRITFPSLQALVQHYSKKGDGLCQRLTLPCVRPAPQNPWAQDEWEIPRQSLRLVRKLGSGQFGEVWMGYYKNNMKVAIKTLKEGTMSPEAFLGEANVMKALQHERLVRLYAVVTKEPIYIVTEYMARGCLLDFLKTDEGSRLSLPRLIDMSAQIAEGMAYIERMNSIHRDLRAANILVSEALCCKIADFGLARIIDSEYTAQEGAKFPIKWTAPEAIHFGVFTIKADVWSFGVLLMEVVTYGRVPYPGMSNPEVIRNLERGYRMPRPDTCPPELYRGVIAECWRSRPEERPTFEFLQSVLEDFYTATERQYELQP
T10 sequence (Q6P3R8 whole entry): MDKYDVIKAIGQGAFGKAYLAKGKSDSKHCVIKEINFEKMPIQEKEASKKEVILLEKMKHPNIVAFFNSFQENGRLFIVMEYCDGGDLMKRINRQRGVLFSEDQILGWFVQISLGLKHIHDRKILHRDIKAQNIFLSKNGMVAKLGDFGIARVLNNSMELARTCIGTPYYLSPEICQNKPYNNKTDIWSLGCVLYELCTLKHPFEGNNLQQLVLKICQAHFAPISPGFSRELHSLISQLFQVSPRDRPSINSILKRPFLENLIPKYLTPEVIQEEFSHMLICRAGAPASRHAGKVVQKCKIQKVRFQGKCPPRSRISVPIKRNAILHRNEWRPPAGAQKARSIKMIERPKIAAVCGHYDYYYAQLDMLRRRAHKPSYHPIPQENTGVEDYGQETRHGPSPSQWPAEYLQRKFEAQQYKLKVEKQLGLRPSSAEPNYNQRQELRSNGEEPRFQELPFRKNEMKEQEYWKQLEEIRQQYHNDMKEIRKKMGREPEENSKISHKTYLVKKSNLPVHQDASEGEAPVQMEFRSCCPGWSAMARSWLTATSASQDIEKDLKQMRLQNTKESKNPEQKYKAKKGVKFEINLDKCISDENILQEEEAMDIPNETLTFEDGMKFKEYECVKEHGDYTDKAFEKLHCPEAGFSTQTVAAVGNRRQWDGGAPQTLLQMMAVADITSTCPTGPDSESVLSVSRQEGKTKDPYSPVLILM

SMILES: CCCCN1CCN(C(=N)c2cccc(NC(=O)Nc3ccc(S(=O)(=O)NCc4ccc(S(N)(=O)=O)cc4)cc3)c2)CC1 [SC81458, 4-(3-(3-((4-butylpiperazin-1-yl)(imino)methyl)phenyl)ureido)-N-(4-sulfamoylbenzyl) benzenesulfonamide]
- remaining binding at 10 µM [1]: 100%
- remaining binding at 10 µM (ERK8): 100%
- remaining binding at 10 µM (BLK): 100%
- remaining binding at 10 µM (HIPK3): 99%
- remaining binding at 10 µM (MST4): 100%
- remaining binding at 10 µM (FER): 100%
- remaining binding at 10 µM (NEK9): 100%
- remaining binding at 10 µM (MET): 78%
- remaining binding at 10 µM (EPHA6): 92%
- remaining binding at 10 µM (NEK5): 100%
- remaining binding at 10 µM (WEE2): 100%
- remaining binding at 10 µM (EGFR(L858R, T790M)): 100%
- remaining binding at 10 µM (ACVR2b): 93%
- remaining binding at 10 µM [2]: 84%
- remaining binding at 10 µM (PIK3CA(H1047Y)): 100%
- remaining binding at 10 µM (p38-delta): 89%
- remaining binding at 10 µM (DCAMKL3): 62%
- remaining binding at 10 µM (YSK4): 100%
- remaining binding at 10 µM (LIMK2): 100%
- remaining binding at 10 µM (ZAP70): 89%
- remaining binding at 10 µM (ERK5): 100%
- remaining binding at 10 µM (ERBB4): 100%
- remaining binding at 10 µM (RAF1): 100%
- remaining binding at 10 µM (EGFR): 100%
- remaining binding at 10 µM (DYRK1a): 100%
- remaining binding at 10 µM (VEGFR2): 84%
- remaining binding at 10 µM (PRKCE): 100%
- remaining binding at 10 µM (MARK2): 100%
- remaining binding at 10 µM (FLT3(N841I)): 100%
- remaining binding at 10 µM (NEK6): 100%
- remaining binding at 10 µM (TYRO3): 79%
- remaining binding at 10 µM (DLK): 100%
- remaining binding at 10 µM (CSK): 100%
